KC/GRO level and TNF-alpha level data for one compound are collected here from patent US12097203B2, “Combination therapies comprising SHP2 inhibitors and PD-1 inhibitors” (HUYABIO International, LLC, priority 2021, dated 2024).

The subject of this experiment is MC38 tumor. Kind of experiment: Cytokine detection assay (V-Plex Proinflammatory Panel 1 Mouse Kit) in MC38 tumor bearing animals. In kind it is in vivo, mice. The note with it: MC38 tumor model, plasma from tumor bearing animals 2 hours post last dose. The text has this:
Reagents: GH21001 (TNO-155), GH21005 (compound of Formula Ia) were supplied by HUYA Biosciences, USA, RMC-4550 was purchased from MCE, China. Osimertinib was purchased from Selleck, China. Cisplatin was purchased from Qilu Pharma, China. Anti-PD-1 (RMP1-14) and Rat IgG2a antibodies were purchased from BioXCell (China).
All cell lines were maintained in culture and cells in exponential growth phase were harvested and quantitated by cell counter before tumor inoculation. MC38 tumor cells (1×10^6) in 0.1 ml of PBS were inoculated into the right front flank of female C57/Bl animals, mean tumor size approximately 112 mm^3 at the start of treatment.
The date of randomization and treatment initiation was denoted as day 0. Tumor volumes were measured twice per week in two dimensions using a caliper, and the volume will be expressed in mm3 using the formula: V=(L×W×W)/2, where V is tumor volume, L is tumor length (the longest tumor dimension) and W is tumor width (the longest tumor dimension perpendicular to L). Dosing volume was 10 mL/kg/day. […]
Cytokine detection assay: V-Plex Proinflammatory Panel 1 Mouse Kit (Mesoscale Discovery) was used to determine cytokine levels in plasma isolated from tumor bearing animals 2 hours post last dose. Plasma from tumor bearing animals was analyzed as described by the manufacture's guidelines. […]

For `C[C@@H]1OCC2(CCN(c3cnc(Sc4cccc(NC(=O)c5c(O)nc6n(c5=O)CCCC6)c4Cl)cn3)CC2)[C@@H]1N` [compound of Formula (Ia), N-(3-((5-((3S,4S)-4-amino-3-methyl-2-oxa-8-azaspiro[4.5]decan-8-yl)pyrazin-2-yl)thio)-2-chlorophenyl)-2-hydroxy-4-oxo-6,7,8,9-tetrahydro-4H-pyrido[1,2-a]pyrimidine-3-carboxamide], the KC/GRO level entry (FIG. 2A) is “slight decreases”. Moreover, the TNF-alpha level result (FIG. 2B) was “slight decreases”.
